In article PMC8658806, “New Carbonic Anhydrase-II Inhibitors from Marine Macro Brown Alga Dictyopteris hoytii Supported by In Silico Studies” (Molecules, 2021):
Like-named read-outs stand apart in the source and are kept apart here.

Biological target: T1, purified bovine erythrocyte CA-II (Bos taurus, UniProt P00921)
T1 construct: purified bovine erythrocyte CA-II; from tissue; host or cells: bovine erythrocytes
Test: Carbonic anhydrase II inhibition (4-nitrophenyl acetate hydrolysis, microplate)
Type: biochemical
Settings: for % Inhibition: preliminary screening, test concentration not given
Method: The total reaction volume of 200 µL including 20 µL of test compounds, isolated from Dictyopteris hoytii, and prepared in DMSO, followed by the addition of 140 µL of HEPES–tris buffer, 20 µL of purified bovine erythrocyte CA-II (0.1 mg/mL) prepared in buffer, and 20 µL of a solution of 4-nitrophenyl acetate. Then, 20 µL of the test compound was incubated with the enzyme carbonic anhydrase (EC 4.2.1.1) for 15 min in 96-well flat bottom plates. The rate of product formation was monitored with the addition of 20 µL of 4-NPA as substrate, prepared in methanol at the final concentration of 0.7 mM, at 25 °C for 30 min with regular intervals of 1 min, by using microplate readers (Bio-Rad, Molecular Devices, CA, USA). HEPES-tris was used as a buffer for the reaction at a final concentration of 20 mM at pH 7.4.

[1] = Table 1 and text, unit given, NA = not active, read-out: IC50 ± SEM

T1 sequence (P00921 whole entry): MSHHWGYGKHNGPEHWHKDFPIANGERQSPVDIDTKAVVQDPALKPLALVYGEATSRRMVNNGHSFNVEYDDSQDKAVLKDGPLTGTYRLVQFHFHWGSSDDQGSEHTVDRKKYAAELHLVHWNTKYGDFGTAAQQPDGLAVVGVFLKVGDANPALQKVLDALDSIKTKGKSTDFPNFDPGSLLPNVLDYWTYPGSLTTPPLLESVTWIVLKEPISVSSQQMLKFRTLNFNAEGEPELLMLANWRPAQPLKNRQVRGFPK

Compound | IC50 [1] [µM] | % Inhibition [%] | IC50 [µM] | IC50 (Table 2 repeat of Table 1 values, read-out: IC50 ± S.E.M) [µM]
C=CCCCCCCCCCCCCCCCC [Compound 7, octadec-1-ene] | 16.3 ± 0.31 | 88.0 | – | –
C/C=C(\CC[C@@H](C)[C@H]1CC[C@H]2[C@@H]3CC=C4C[C@@H](O)CC[C@]4(C)[C@H]3CC[C@]12C)C(C)C [Compound 15, fucosterol] | – | 69.8 | 31.3 ± 1.34 | –
ethyl methyl 2-bromobenzene 1,4-dioate [Compound 13] | 39.5 ± 0.73 | 87.3 | – | 39.5 ± 0.73

Now from value to compound, other results behind:

IC50 [1] [µM] | % Inhibition [%] | Compound | IC50 [µM] | IC50 (Table 2 repeat of Table 1 values, read-out: IC50 ± S.E.M) [µM]
44.9 ± 1.1 | 79.4 | O=Cc1ccccc1/C=C/C(=O)O [Compound 1, (E)-3-(2-formylphenyl)acrylic acid] | – | –
17.7 ± 2.01 | 93.9 | COC(OC)c1ccc(/C=C/C(=O)O)cc1 [Compound 5, (E)-3-(4-(dimethoxymethyl)phenyl)acrylic acid] | – | –
53.1 ± 1.2 | 93.9 | O=Cc1ccc(C=O)cc1 [Compound 9, terephthalaldehyde] | – | –
24.3 ± 1.38 | 87.3 | CCCCCCCCCCCCCCCCCCC=CCCCCCCCC(=O)O [Compound 19, n-octacos-9-enoic acid] | – | –
